Values of other authors in US20010039006A1, “Toxicity typing using embryoid bodies” (priority 1998, published 2001).
Read-outs that look alike come from different tables or passages of the source.

What was measured:
[1] = human, in vivo
[2] = for liver toxicity: known toxicity of the marketed drug
[3] = in vivo
[4] = human, in vivo; remark: listed apart in the source

SMILES: c1ccc2c(c1)cc1ccc3cccc4ccc2c1c34 [benzo(a)pyrene]
- TOXICITIES CV [1]: +

SMILES: CC(=O)Nc1ccc(O)cc1 [acetominophen]
- TOXICITIES LIVER ([2]; human, in vivo): +

SMILES: Cc1c(C)c2c(c(C)c1O)CCC(C)(COc1ccc(CC3SC(=O)NC3=O)cc1)O2 (stereo not drawn) [troglitazone]
- liver toxicity [2]: rare but severe liver toxicity

SMILES: N=C(N)NCCCCCCC(=O)NC(O)C(=O)NCCCCNCCCN (stereo not drawn) [deoxyspergualin]
- TOXICITIES CV [1]: +

SMILES: CN(CCOc1ccc(CC2SC(=O)NC2=O)cc1)c1ccccn1 (stereo not drawn) [rosiglitazone]
- TOXICITIES LIVER ([2]; Table 1): ntc

SMILES: N.N.O=C([O-])C1(C(=O)[O-])CCC1.[Pt+2] [carboplatin]
- TOXICITIES GI [3]: +

SMILES: COc1nc(C(Cl)(Cl)Cl)c(Cl)c(OC)c1Cl [penclomedine]
- TOXICITIES CNS [4]: +

SMILES: CCC(=O)O[C@H]1[C@H](O[C@@H]2[C@@H](C)[C@H](O[C@H]3C[C@@](C)(OC)[C@@H](O)[C@H](C)O3)[C@@H](C)C(=O)O[C@H](CC)[C@@](C)(O)[C@H](O)[C@@H](C)C(=O)[C@H](C)C[C@@]2(C)O)O[C@H](C)C[C@@H]1N(C)C [erythromycin estolate]
- liver toxicity [2]: known liver toxicity

SMILES: CCOC(=O)C(C)(C)Oc1ccc(Cl)cc1 [clofibrate]
- TOXICITIES LIVER ([2]; Table 1): ntc
